# Patent publication US8058295B2, “Cystic fibrosis transmembrane conductance regulator protein inhibitors and uses thereof” (The Regents of the University of California, priority 2002, dated 2011)
# System: Caco-2 monolayers
# Experiment: not given
# Details: literature values, Stenberg et al.; cited from earlier work
row,SMILES,permeability coefficient
1,CC(C)NCC(O)COc1cccc2[nH]ccc12 (stereo not shown) [pindolol],36 ×10⁻⁶ cm/s
2,CCCc1nn(C)c2c(=O)[nH]c(-c3cc(S(=O)(=O)N4CCN(C)CC4)ccc3OCC)nc12 [sildenafil],48 ×10⁻⁶ cm/s

# Target: wildtype CFTR (Homo sapiens, UniProt P13569)
# Sequence (P13569 whole entry): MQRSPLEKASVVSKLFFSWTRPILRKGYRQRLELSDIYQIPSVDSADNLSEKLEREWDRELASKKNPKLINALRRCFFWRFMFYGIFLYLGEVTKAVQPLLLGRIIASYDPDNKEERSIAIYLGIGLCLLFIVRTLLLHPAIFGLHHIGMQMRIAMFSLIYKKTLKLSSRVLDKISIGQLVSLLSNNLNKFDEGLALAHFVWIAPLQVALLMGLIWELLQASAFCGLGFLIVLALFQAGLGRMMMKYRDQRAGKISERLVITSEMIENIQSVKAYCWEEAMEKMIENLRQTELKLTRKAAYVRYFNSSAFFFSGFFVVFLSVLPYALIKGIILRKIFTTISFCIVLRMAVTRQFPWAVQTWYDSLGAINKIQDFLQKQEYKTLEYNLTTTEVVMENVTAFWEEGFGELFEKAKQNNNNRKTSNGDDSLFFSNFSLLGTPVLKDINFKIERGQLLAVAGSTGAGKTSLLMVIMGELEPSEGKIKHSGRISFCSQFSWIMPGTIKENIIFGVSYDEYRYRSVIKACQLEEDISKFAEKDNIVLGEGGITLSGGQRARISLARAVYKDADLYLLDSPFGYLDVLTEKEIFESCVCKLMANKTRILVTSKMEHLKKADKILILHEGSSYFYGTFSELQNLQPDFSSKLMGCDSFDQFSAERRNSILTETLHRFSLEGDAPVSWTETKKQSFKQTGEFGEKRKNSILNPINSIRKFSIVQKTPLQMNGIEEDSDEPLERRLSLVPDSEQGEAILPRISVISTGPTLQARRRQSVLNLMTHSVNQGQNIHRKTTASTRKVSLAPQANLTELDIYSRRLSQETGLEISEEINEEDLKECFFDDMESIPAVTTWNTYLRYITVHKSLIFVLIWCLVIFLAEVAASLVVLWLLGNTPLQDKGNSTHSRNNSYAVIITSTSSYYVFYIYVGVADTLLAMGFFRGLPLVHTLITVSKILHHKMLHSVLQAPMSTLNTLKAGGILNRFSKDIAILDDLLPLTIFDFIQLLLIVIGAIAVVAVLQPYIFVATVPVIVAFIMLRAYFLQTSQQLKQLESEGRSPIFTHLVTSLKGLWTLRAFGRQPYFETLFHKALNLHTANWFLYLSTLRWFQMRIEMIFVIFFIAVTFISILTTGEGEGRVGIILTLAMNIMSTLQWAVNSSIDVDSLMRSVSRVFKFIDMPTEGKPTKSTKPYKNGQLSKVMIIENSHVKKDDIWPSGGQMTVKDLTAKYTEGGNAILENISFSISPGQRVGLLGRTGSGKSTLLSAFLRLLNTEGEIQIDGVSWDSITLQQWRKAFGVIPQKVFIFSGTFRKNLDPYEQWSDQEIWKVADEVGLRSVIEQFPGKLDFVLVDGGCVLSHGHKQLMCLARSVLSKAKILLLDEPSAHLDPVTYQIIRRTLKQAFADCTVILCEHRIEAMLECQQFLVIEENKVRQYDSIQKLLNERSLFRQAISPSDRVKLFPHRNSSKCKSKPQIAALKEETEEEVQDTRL
# Experiment: YFP fluorescence assay of CFTR-mediated I^− transport in FRT cells
# Assay type: cell-based
# Design: expressed in transfected cells; host or cells: Fischer rat thyroid (FRT) cells
# Details: relative to CFTRinh-172 = 1.0
# Procedure: FIG. 1A is a schematic representation of a screening technique used for detection of CFTR inhibitors. CFTR was maximally stimulated by multiple agonists in stably transfected epithelial cells co-expressing human CFTR and a yellow fluorescent protein (YFP) having Cl^−/I^− sensitive fluorescence. After addition of a test compound, I^− influx was induced by adding an I^− containing solution.
# Cells were plated in 96-well black-walled microplates (Corning Costar) at a density of 20,000 cells per well in Coon's modified F12 medium supplemented with 5% fetal calf serum, 2 mM L-glutamine, 100 U/mL penicillin, and 100 μg/mL streptomycin. Assays were done at 48 hours after plating at which time cells were just confluent (˜40,000 cells per well).
# Assays were done using a customized screening system (Beckman) consisting of a 3-meter robotic arm, CO2 incubator, plate washer, liquid handling workstation, bar code reader, delidding station, and two FluoStar fluorescence plate readers (BMG Labtechnologies, Offenburg, Germany), each equipped with two syringe pumps and HQ500/20X (500±10 nm) excitation and HQ535/30M (535±15 nm) emission filters (Chroma). The robotic system was integrated using SAMI version 3.3 software (Beckman) modified for two plate readers. Custom software was written in VBA (Visual Basic for Applications) to compute baseline-subtracted, normalized fluorescence slopes (giving halide influx rates) from stored data files.
# The assay was set-up by loading the incubator (37° C., 90% humidity, 5% CO2) with 40-60 96-well plates containing the FRT cells, and loading a carousel with 96-well plates containing test compounds and disposable plastic pipette tips. To initiate the assay, each well of a 96-well plate was washed 3 times in PBS (300 μL/wash), leaving 50 μL PBS. Ten μL of a CFTR-activating cocktail (5 μM forskolin, 100 μM IBMX, 25 μM apigenin in PBS) was added, and after 5 min one test compound (0.5 μL of 1 mM DMSO solution) was added to each well to give 10 μM final concentration. After 10 min, 96-well plates were transferred to a plate reader for fluorescence assay. Each well was assayed individually for CFTR-mediated I^− transport by recording fluorescence continuously (200 ms per point) for 2 s (baseline) and then for 12 s after rapid (<0.5 s) addition of 160 μL of isosmolar PBS in which 137 mM Cl^− was replaced by I^−.
# The primary screening technique used to identify the compounds of the invention was designed to identify inhibitors of CFTR Cl^− conductance by direct CFTR-inhibitor interaction. CFTR was pre-stimulated in CFTR-expressing FRT cells by an activating cocktail containing forskolin, IBMX and apigenin, as shown schematically in FIG. 1A. The activation of CFTR by multiple mechanisms (cAMP elevation, phosphodiesterase inhibition, and direct CFTR binding) allowed identification of inhibitors that blocked the CFTR Cl^− transporting pathway directly rather than more proximal step(s) in a signaling pathway. The FRT cells co-expressed a yellow fluorescent protein-based Cl^−/I^− sensor that provided a quantitative fluorescence read-out of inhibition potency (See, e.g., Jayaraman et al., 2000, J. Biol. Chem. 275:6047-6050; Galietta et al., 2001, Am. J. Physiol. 281:C1734-C1742.). After CFTR pre-stimulation and compound addition, cells were subjected to an inwardly-directed I^− gradient to drive I^− influx and produce decreasing fluorescence. Each assay consisted of recording baseline fluorescence for 2 seconds, followed by 12 seconds of continuous recording of fluorescence after rapid addition of the I^− containing solution. Compounds were tested separately at 10 μM concentration in a 96-well format utilizing a fully-automated high-throughput screening apparatus (see Example 2 below).
row,SMILES,relative potency (CFTR inhibition)
1,"O=C(O)c1ccccc1C=C1SC(=S)N(c2ccccc2C(F)(F)F)C1=O [4, 2, 3-[(a-trifluoromethyl)phenyl]-5-[(b-carboxyphenyl)methylene]-2-thioxo-4-thiazolidinone]",0.67
2,"O=C1/C(=C/c2ccc([N+](=O)[O-])cc2)SC(=S)N1c1cccc(C(F)(F)F)c1 [CFTRinh-020, 3-[(3-trifluoromethyl)phenyl]-5-[(4-nitrophenyl)methylene]-2-thioxo-4-thiazolidinone]",0.2
3,"O=C1/C(=C/c2cc(Br)c(O)c(Br)c2)SC(=S)N1c1cccc(C(F)(F)F)c1 [CFTRinh-214, 3-[(3-trifluoromethyl)phenyl]-5-[(3,5-dibromo-4-hydroxyphenyl)methylene]-2-thioxo-4-thiazolidinone]",0.1
4,"O=C(O)c1ccccc1C=C1SC(=S)N(c2ccccc2C(F)(F)F)C1=O [3, 2, 3-[(a-trifluoromethyl)phenyl]-5-[(b-carboxyphenyl)methylene]-2-thioxo-4-thiazolidinone]",0.74
5,"O=C(O)c1ccccc1C=C1SC(=S)N(c2ccccc2C(F)(F)F)C1=O [2, 3, 3-[(a-trifluoromethyl)phenyl]-5-[(b-carboxyphenyl)methylene]-2-thioxo-4-thiazolidinone]",0.70
6,"O=C(O)c1ccccc1C=C1SC(=S)N(c2ccccc2C(F)(F)F)C1=O [a=2, b=2, 3-[(a-trifluoromethyl)phenyl]-5-[(b-carboxyphenyl)methylene]-2-thioxo-4-thiazolidinone]",0.69
7,"O=C(O)c1ccccc1C=C1SC(=S)N(c2ccccc2C(F)(F)F)C1=O [4, 4, 3-[(a-trifluoromethyl)phenyl]-5-[(b-carboxyphenyl)methylene]-2-thioxo-4-thiazolidinone]",0.56
8,"O=C(O)c1ccccc1C=C1SC(=S)N(c2ccccc2C(F)(F)F)C1=O [3, 3, 3-[(a-trifluoromethyl)phenyl]-5-[(b-carboxyphenyl)methylene]-2-thioxo-4-thiazolidinone]",0.90
9,"O=C1/C(=C/c2ccc(O)c(O)c2)SC(=S)N1c1cccc(C(F)(F)F)c1 [CFTRinh-185, 3-[(3-trifluoromethyl)phenyl]-5-[(3,4-dihydroxyphenyl)methylene]-2-thioxo-4-thiazolidinone]",0.2
10,"O=C(O)Oc1ccc(/C=C2\SC(=S)N(c3cccc(C(F)(F)F)c3)C2=O)cc1 [CFTRinh-029, 3-[(3-trifluoromethyl)phenyl]-5-[(4-oxycarboxyphenyl)methylene]-2-thioxo-4-thiazolidinone]",0.3
11,"O=C(O)c1ccccc1C=C1SC(=S)N(c2ccccc2C(F)(F)F)C1=O [2, 4, 3-[(a-trifluoromethyl)phenyl]-5-[(b-carboxyphenyl)methylene]-2-thioxo-4-thiazolidinone]",0.66
12,"O=C1/C(=C/c2cc(Br)c(O)c([N+](=O)[O-])c2)SC(=S)N1c1cccc(C(F)(F)F)c1 [CFTRinh-236, 3-[(3-trifluoromethyl)phenyl]-5-[(3-bromo-4-hydroxy-5-nitrophenyl)methylene]-2-thioxo-4-thiazolidinone]",0.1
13,"O=C(O)c1ccccc1C=C1SC(=S)N(c2ccccc2C(F)(F)F)C1=O [4, 3, 3-[(a-trifluoromethyl)phenyl]-5-[(b-carboxyphenyl)methylene]-2-thioxo-4-thiazolidinone]",0.64

# Target: T1, MDR-1 (Homo sapiens, UniProt P08183)
# T1 construct: endogenous in cells; host or cells: 9HTEo-/Dx cells
# T1 sequence (P08183 whole entry): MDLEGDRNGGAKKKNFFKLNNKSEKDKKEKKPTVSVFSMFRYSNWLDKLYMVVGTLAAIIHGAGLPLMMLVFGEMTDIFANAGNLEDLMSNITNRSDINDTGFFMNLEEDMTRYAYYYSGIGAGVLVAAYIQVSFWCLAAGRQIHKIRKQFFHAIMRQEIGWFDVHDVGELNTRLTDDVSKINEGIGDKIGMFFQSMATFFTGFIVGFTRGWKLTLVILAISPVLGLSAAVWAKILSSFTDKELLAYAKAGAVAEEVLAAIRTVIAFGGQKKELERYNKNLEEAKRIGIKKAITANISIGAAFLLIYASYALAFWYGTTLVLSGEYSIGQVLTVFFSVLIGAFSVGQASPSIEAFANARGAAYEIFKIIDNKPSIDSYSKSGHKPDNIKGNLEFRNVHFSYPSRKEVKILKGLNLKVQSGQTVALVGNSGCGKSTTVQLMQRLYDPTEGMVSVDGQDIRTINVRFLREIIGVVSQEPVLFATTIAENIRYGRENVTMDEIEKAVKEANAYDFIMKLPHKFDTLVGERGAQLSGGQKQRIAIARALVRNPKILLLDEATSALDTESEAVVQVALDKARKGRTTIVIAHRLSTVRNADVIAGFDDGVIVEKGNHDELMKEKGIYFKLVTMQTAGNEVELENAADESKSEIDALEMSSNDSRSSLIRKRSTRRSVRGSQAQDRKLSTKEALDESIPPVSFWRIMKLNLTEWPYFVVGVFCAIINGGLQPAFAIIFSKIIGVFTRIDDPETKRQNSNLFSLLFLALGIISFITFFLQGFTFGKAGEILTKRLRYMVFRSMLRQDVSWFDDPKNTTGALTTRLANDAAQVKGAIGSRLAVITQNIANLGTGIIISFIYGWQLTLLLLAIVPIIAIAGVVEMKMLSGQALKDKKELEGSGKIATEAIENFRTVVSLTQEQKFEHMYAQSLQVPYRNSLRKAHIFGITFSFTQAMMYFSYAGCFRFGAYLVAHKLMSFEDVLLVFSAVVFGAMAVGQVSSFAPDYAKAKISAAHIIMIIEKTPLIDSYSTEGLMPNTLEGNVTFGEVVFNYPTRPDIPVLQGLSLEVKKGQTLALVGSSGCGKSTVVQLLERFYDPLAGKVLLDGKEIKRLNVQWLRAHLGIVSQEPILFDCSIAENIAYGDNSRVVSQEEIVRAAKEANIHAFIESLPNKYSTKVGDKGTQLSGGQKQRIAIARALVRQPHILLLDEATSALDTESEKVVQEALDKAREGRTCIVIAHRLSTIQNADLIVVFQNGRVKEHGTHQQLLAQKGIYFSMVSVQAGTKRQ
# Experiment: MDR-1 activity, ^3H-vincristine accumulation in 9HTEo-/Dx cells
# Assay type: cell-based
# Details: 100 μM
row,SMILES,vincristine accumulation
1,"COc1ccc(CCN(C)CCCC(C#N)(c2ccc(OC)c(OC)c2)C(C)C)cc1OC (stereo not shown) [verapamil, reference compound]",strongly increased
